Source: ChEMBL document CHEMBL1201862, “PubChem BioAssay data set” (2004)
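Values below derive from 48-hour exposures of cells grown in 96-well plates, with endpoints linearly interpolated between the two concentrations bracketing the appropriate inhibition level. Abbreviation: GI50, concentration required for 50% inhibition of growth.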 Activity calls are given as the source filed them. Rule as the data show it: active = GI50 up to about 1.1 µM and inactive = higher.

How the values were obtained:
Assay in all cases: NCI anticancer screen, dose series, 48 h
[1] = system: DU-145
[2] = system: KM12
[3] = system: TK-10
[4] = system: OVCAR-5
[5] = system: NCI/ADR-RES
[6] = system: M14
[7] = system: MDA-N
[8] = system: OVCAR-4
[9] = system: SR
[10] = system: Malme-3M
[11] = system: HL-60
[12] = system: MOLT-4
[13] = system: NCI-H522
[14] = system: CCRF-CEM
[15] = system: BT-549
[16] = system: HCT-15
[17] = system: SK-MEL-2
[18] = system: K562
[19] = system: SNB-19
[20] = system: UO-31
[21] = system: HOP-92
[22] = system: MCF7
[23] = system: SW-620
[24] = system: LOX IMVI
[25] = system: MDA-MB-435
[26] = system: NCI-H226
[27] = system: PC-3
[28] = system: SN12C
[29] = system: OVCAR-3
[30] = system: U-251
[31] = system: NCI-H23
[32] = system: SF-295
[33] = system: HCC 2998
[34] = system: OVCAR-8
[35] = system: 786-0
[36] = system: NCI-H460
[37] = system: UACC-257
[38] = system: RXF 393
[39] = system: Hs-578T
[40] = system: T47D
[41] = system: A498
[42] = system: ACHN
[43] = system: SK-MEL-28
[44] = system: HOP-62
[45] = system: EKVX
[46] = system: COLO 205
[47] = system: SK-OV-3
[48] = system: A549
[49] = system: SF-268
[50] = system: UACC-62
[51] = system: HT-29
[52] = system: MDA-MB-231
[53] = system: CAKI-1
[54] = system: IGROV-1
[55] = system: HCT-116
[56] = system: SNB-75
[57] = system: SF-539
[58] = system: RPMI-8226
[59] = system: SK-MEL-5

For `COc1ccccc1C1(C)SCc2nc3ccccc3n21` (centres undefined), the GI50 [1] was > 10 µM (inactive), the GI50 [2] was > 10 µM (inactive) and the GI50 [3] was > 10 µM (inactive). The GI50 [4] was > 10 µM (inactive), the GI50 [5] was > 10 µM (inactive) and the GI50 [6] was > 10 µM (inactive). For the same compound, the GI50 [7] was > 10 µM (inactive), the GI50 [8] was > 10 µM (inactive) and the GI50 [9] was > 10 µM (inactive). The GI50 [10] was > 10 µM (inactive), the GI50 [11] was > 10 µM (inactive) and the GI50 [12] was > 10 µM (inactive). The GI50 [13] was > 10 µM (inactive), the GI50 [14] was > 10 µM (inactive) and the GI50 [15] was > 10 µM (inactive). For the same compound, the GI50 [16] was greater than 10 µM, the GI50 [17] was > 10 µM (inactive) and the GI50 [18] was > 10 µM (inactive). The GI50 [19] was > 10 µM (inactive), the GI50 [20] was > 10 µM (inactive) and the GI50 [21] was > 10 µM (inactive). For the same compound, the GI50 [22] was > 10 µM (inactive), the GI50 [23] was > 10 µM (inactive) and the GI50 [24] was > 10 µM (inactive). The GI50 [25] was > 10 µM (inactive), the GI50 [26] was > 10 µM (inactive) and the GI50 [27] was > 10 µM (inactive). For the same compound, the GI50 [28] was > 10 µM (inactive), the GI50 [29] was > 10 µM (inactive) and the GI50 [30] was > 10 µM (inactive). The GI50 [31] was > 10 µM (inactive).
`COCC(/N=C\N1CCCc2ccccc2[C@@H]1CCCCl)C(C)(C)C` (some centres undefined) was tested, and the GI50 [1] was > 100 µM (inactive), the GI50 [32] was 17.2 µM (inactive) and the GI50 [2] was 4.24 µM (inactive). The GI50 [3] was 9.93 µM (inactive), the GI50 [33] was 13.3 µM (inactive) and the GI50 [34] was 15.5 µM (inactive). For the same compound, the GI50 [4] was 13.6 µM (inactive), the GI50 [5] was 0.392 µM (active) and the GI50 [35] was 7.96 µM (inactive). For the same compound, the GI50 [6] was 4.55 µM (inactive), the GI50 [7] was 33.8 µM (inactive) and the GI50 [36] was 35.7 µM (inactive). The GI50 [8] was 1.97 µM (inactive), the GI50 [9] was 2.05 µM (inactive) and the GI50 [37] was 0.798 µM (active). The GI50 [38] was 13.1 µM (inactive), the GI50 [39] was 0.0184 µM (active) and the GI50 [40] was 21.2 µM (inactive). For the same compound, the GI50 [41] was 13.2 µM (inactive), the GI50 [10] was 0.332 µM (active) and the GI50 [11] was 0.619 µM (active). The GI50 [12] was 1.71 µM (inactive), the GI50 [13] was 0.557 µM (active) and the GI50 [14] was 0.444 µM (active). For the same compound, the GI50 [42] was 16.9 µM (inactive), the GI50 [43] was > 100 µM (inactive) and the GI50 [44] was 15.3 µM (inactive). The GI50 [16] was 41.9 µM, the GI50 [45] was 17.5 µM (inactive) and the GI50 [46] was 0.586 µM (active). For the same compound, the GI50 [17] was 17.1 µM (inactive), the GI50 [18] was 0.512 µM (active) and the GI50 [19] was 18.7 µM (inactive). For the same compound, the GI50 [47] was 14.6 µM (inactive), the GI50 [48] was 13.4 µM (inactive) and the GI50 [20] was 12.2 µM (inactive). The GI50 [49] was > 100 µM (inactive), the GI50 [50] was 10.3 µM (inactive) and the GI50 [51] was 1.54 µM (inactive). The GI50 [21] was 7.19 µM (inactive), the GI50 [52] was 3.49 µM (inactive) and the GI50 [53] was 1.58 µM (inactive). For the same compound, the GI50 [22] was 0.351 µM (active), the GI50 [23] was 13 µM (inactive) and the GI50 [24] was 8.41 µM (inactive). For the same compound, the GI50 [54] was 0.353 µM (active), the GI50 [55] was 1.23 µM (inactive) and the GI50 [56] was 3.01 µM (inactive). For the same compound, the GI50 [57] was 12.1 µM (inactive), the GI50 [58] was 2.67 µM (inactive) and the GI50 [25] was 11.7 µM (inactive). The GI50 [59] was 1.31 µM (inactive), the GI50 [26] was 5.28 µM (inactive) and the GI50 [27] was 0.482 µM (active). The GI50 [28] was 17.1 µM (inactive), the GI50 [29] was 0.209 µM (active) and the GI50 [30] was 6.89 µM (inactive). For the same compound, the GI50 [31] was 0.421 µM (active).
